Laboratory results taken from paper PMC6158189, “A pharmacological probe identifies cystathionine β-synthase as a new negative regulator for ferroptosis” (Cell Death & Disease, 2018).
Entries after “also recorded” stand apart in the source; their conditions may differ.

What was measured:
[1] = biological target: T1, hCBS (Homo sapiens, UniProt P35520); experiment: rapid dilution reversibility experiment; format: biochemical; conditions: 10 μM, 40 min pre-incubation with 20 μM hCBS, 200-fold dilution
T1 construct: GST (N); made in house; host or cells: E. coli BL21
T1 sequence (P35520 1-551): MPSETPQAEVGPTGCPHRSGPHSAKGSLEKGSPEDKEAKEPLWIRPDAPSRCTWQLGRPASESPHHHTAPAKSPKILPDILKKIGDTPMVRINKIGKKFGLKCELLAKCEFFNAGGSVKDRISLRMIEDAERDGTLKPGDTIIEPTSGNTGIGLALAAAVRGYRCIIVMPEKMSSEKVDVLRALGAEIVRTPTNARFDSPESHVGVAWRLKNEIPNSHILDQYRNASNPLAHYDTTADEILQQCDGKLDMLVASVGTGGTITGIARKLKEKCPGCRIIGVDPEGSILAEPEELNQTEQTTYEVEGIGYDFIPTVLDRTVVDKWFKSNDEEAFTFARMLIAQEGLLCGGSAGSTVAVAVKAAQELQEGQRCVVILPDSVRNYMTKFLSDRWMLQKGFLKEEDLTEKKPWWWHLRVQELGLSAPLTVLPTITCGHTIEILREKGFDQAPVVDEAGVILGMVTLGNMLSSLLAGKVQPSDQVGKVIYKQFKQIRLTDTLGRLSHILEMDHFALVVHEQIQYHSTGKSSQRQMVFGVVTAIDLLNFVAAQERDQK
Description: Figure S2. The mode of action of CH004 in inhibiting hCBS. […] After incubation with DMSO or CH004 at 10 μM for 40 min, hCBS (20 μM) was diluted 200-fold and the activity was measured according to the standard assay protocol (Materials and Methods). The data are presented as percentages of control (CTR; DMSO, 100%) and shown as means ± SDs (n = 5). The effects of 0.05 and 10 μM CH004 on hCBS (100 nM) without pre-incubation were defined as positive control (PC) and negative control (NC), respectively. (B) Inhibition of hCBS by CH004 as a function of PLP concentration with Cys (20 mM) together with Hcys (10 mM) as substrates (non-competitive inhibition constant αKi=15.2 ± 4.9 μM). (C) Inhibition of hCBS by CH004 as a function of Cys concentration in the presence of 100 μM PLP and the absence of Hcys (mixed inhibition constant αKi=26.4 ± 8 μM). (D) Inhibition of hCBS by CH004 as a function of Hcys concentration in the presence of 20 mM Cys and 100 μM PLP (mixed inhibition constant αKi’=7.2 ± 1.6 μM). Each point in the Lineweaver-Burk plots represents the means of triplicate. The αKi or αKi’ values were calculated by using the non-linear fitting method for enzyme kinetics in GraphPad Prism 5. (E) Surface Plasmon Resonance assays analysis of the binding of CH004 to hCBS. […] Dissociation constants for CH004 (KD) were calculated by using Biacore evaluation software (Materials and Methods).

[2] = system: HepG2 cells; experiment: total Hcys in HepG2 cells (ELISA); format: cell-based, human; conditions: 5 or 10 μM, 12 h
Description: Fig. 3 The effect of CH004 on the activity of endogenous hCBS in cells. a CH004 dose-dependently elevates the levels of Hcys in HepG2 and HEK293T cells. HepG2 cells or HEK293T cells were incubated with indicated CH004 or DMSO (control) for 12 h. The amount of total Hcys in cells was measured by ELISA using Axis® Homocysteine EIA kit (IBL, AX51301) (“Materials and Methods” section). […] HepG2 cells were treated with indicated DMSO, CH004 or HA for 8 h before the staining with AzMC probe. The amount of the H2S (blue) was quantified and is shown in (c). Bars, 50 μm. Control (CTR), DMSO group (100%). A representative fluorescence image from three independent experiments is shown. Means ± SDS (n = 3). d CH004 elevates Hcys in the peripheral blood of rats. The total Hcys of the blood samples collected from the anesthetized rats at the 75 min time point (Materials and Methods) were quantified by ELISA (see above). Means ± SDS (n = 6).
HepG2 or HEK293T cells were seeded in poly-D-Lys-coated 6-well plates at a density of ∼ 5 × 10^5 cells per well for one day, treated with DMSO or various concentrations of compounds for another 12 h before the collection by scraping or trypsinization. […]

[3] = system: HEK293T cells; experiment: intracellular ROS (DCFH-DA, flow cytometry); format: cell-based; conditions: 12 h
Description: (§1) Fig. 5 In situ reduction of CBS activity and H2S in mitochondria by CH004 is coupled with an increase of intracellular ROS. a, b CH004 dose-dependently elevates ROS levels in both HepG2 (a) and HEK293T cells (b). The cells were treated with CH004 for 12 h or with 1 mM H2O2 for 30 min before the staining with DCFH-DA (Molecular Probes) and the analyzsis by flow cytometry (“Materials and Methods” section). Means ± SDS (n = 3). […] HepG2 cells were incubated with indicated inhibitors for 8 h before staining with the mitochondria tracker Mito-tracker® Green (Invitrogen) and the AzMC probe. Cyan represents the colocalization of H2S (blue) and the mitochondria tracker (green). Bars: 50 μm. d hCBS co-localizes with the mitochondria in HepG2 and HEK293T cells. HepG2 and HEK293T cells were stained with an anti-CBS antibody (3E1, 1:200; Abnova) for hCBS (red), Mito-tracker® Green for the mitochondria (green) and DAPI for the nucleus (blue). […]
(§2) To investigate the intracellular ROS levels, HEK293T or HepG2 cells were seeded in 6-well plates for one day, then incubated with the indicated inhibitors and 1 mM H2O2 for 12 h and 30 min, respectively. After trypsinization and one wash in PBS, the collected cells were resuspended in PBS and incubated with 100 μM probe DCFH-DA for 30 min at 37 °C before being analyzed using an LSR Fortessa flow cytometer.

[4] = system: HepG2 cells; experiment: intracellular ROS (DCFH-DA, flow cytometry); format: cell-based, human; conditions: HepG2, 12 h
Description: as §1, §2

SMILES: Cn1nc(Cc2ccccc2)nc2c(=O)n(C)c(=O)nc1-2 [CH004, 3-benzyl-1,6-dimethylpyrimido[5,4-e][1,2,4]triazine-5,7(1H,6H)-dione]
- reversibility of binding to hCBS [1]: binds reversibly; also recorded: reversibly binds
- increase of Hcys [2]: ~ 2 fold
- maximum increase of cellular ROS [3]: ~ 2 fold
- maximum increase of cellular ROS [4]: ~ 2 fold
